Laboratory results reported in ChEMBL document CHEMBL1142797, “2-Aminoquinazoline inhibitors of cyclin-dependent kinases” (Bioorg Med Chem Lett, 2005).

What was measured:
[1] = target: Cyclin-dependent kinase 4/cyclin D1 (Homo sapiens, UniProt P11802); assay: Inhibitory concentration against CDK4/ Cyclin D; format: protein-complex assay
[2] = target: Cyclin-dependent kinase 2/cyclin E1 (Homo sapiens, UniProt P24941); assay: Inhibitory concentration against CDK2/ Cyclin E; format: protein-complex assay
[3] = target: Cyclin-dependent kinase 1/cyclin B1 (Homo sapiens, UniProt P06493); assay: Inhibitory concentration against CDK1/ Cyclin B; format: protein-complex assay
Chain of Cyclin-dependent kinase 1/cyclin B1 (P06493 whole entry): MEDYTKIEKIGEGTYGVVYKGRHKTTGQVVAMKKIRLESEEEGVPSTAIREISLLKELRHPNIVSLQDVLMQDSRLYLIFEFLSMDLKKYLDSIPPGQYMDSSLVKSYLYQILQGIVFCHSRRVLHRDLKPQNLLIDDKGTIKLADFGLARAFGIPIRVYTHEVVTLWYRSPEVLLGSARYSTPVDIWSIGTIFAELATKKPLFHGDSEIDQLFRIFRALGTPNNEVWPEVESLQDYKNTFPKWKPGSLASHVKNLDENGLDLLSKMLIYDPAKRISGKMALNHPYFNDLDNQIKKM
Chain of Cyclin-dependent kinase 1/cyclin B1 (P14635 whole entry, further chain): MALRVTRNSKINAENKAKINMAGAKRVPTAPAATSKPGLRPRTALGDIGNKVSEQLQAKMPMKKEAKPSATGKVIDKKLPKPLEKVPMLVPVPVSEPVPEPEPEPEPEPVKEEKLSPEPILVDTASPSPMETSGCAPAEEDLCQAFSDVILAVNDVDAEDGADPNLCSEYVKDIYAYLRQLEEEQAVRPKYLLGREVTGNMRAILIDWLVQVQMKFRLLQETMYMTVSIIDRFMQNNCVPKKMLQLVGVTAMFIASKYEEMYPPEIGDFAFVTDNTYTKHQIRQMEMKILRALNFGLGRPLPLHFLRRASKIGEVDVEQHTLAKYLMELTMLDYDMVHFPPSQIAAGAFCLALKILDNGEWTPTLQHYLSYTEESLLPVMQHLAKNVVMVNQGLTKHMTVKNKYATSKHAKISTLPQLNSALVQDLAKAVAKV

[4] = Inhibitory concentration against CDK2/ Cyclin A
[5] = Distribution coefficient at pH 7.4; format: physicochemical; details: octanol/water
HCT-116 = assay: Antiproliferative activity against HCT116 cell lines of human; format: functional, cell-based

Chain of Cyclin-dependent kinase 4/cyclin D1 (P11802 whole entry): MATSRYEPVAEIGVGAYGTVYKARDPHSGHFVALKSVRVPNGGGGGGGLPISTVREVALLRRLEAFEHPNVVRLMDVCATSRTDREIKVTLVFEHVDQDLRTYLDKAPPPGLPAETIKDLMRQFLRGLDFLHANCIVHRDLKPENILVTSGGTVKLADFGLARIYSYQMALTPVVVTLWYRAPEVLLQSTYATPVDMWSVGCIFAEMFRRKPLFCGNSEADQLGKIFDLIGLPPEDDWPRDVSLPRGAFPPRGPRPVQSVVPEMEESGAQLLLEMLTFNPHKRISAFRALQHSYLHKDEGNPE
Chain of Cyclin-dependent kinase 4/cyclin D1 (P24385 whole entry, further chain): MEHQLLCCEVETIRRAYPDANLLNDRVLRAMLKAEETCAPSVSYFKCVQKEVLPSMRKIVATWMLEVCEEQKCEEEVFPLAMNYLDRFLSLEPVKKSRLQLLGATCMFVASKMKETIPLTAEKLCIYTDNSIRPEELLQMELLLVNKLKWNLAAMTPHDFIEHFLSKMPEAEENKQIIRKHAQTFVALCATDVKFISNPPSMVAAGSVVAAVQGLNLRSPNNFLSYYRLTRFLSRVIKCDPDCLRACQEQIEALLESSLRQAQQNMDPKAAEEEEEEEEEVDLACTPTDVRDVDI

| IC50 [1] | IC50 [2] | IC50 [3] | logD [5] | IC50 (HCT-116) | Compound | IC50 [4] |
| --- | --- | --- | --- | --- | --- | --- |
| 7 nM | 655 nM | 743 nM |  |  | COc1ccc2cnc(Nc3ccc(N4CCNCC4)c(F)c3)nc2c1C(C)C | 141 nM |
|  |  | > 5000 nM |  |  | COc1ccc2cnc(Nc3ccc(N4CCN(C(C)=O)CC4)cc3)nc2c1C1CCCC1 |  |
|  |  |  |  |  | CC(C)c1c(O)ccc2cnc(Nc3ccccc3)nc12 | 250 nM |
| 4130 nM | > 5000 nM | > 5000 nM | 3.77 |  | COc1cc(C)c2cnc(Nc3ccc(N4CCN(C(C)=O)CC4)cc3)nc2c1C1CCCC1 | > 5000 nM |
| 55 nM | > 5000 nM | > 5000 nM | 2.32 |  | COc1cc(C)c2cnc(Nc3ccc(N4CCNCC4)cc3)nc2c1C1CCCC1 | > 5000 nM |
|  |  |  |  |  | COc1ccc2cnc(Nc3ccc(N4CCNCC4)cc3)nc2c1C1CCCC1 | 28 nM |
| 1 nM | 270 nM | 761 nM |  |  | Oc1ccc2cnc(Nc3ccc(N4CCNCC4)c(F)c3)nc2c1C1CCCC1 | 112 nM |
|  |  | > 5000 nM | 0.63 |  | Cc1cc(=O)n(C2CCCC2)c2nc(Nc3ccc(N4CCNCC4)cc3)ncc12 |  |
|  |  |  |  |  | COc1ccc2cnc(Nc3ccccc3)nc2c1C(C)C | 253 nM |
| 1 nM | 320 nM | 30 nM |  |  | Oc1ccc2cnc(Nc3ccc(N4CCNCC4)cc3)nc2c1C1CCCC1 | 82 nM |
|  |  |  |  |  | COc1ccc2cnc(Nc3ccc(N4CCOCC4)cc3)nc2c1C(C)C | 665 nM |
| 20 nM | > 5000 nM | > 5000 nM | 1.39 | 100 nM | Cc1cc(O)c(C2CCCC2)c2nc(Nc3ccc(N4CCNCC4)cc3)ncc12 | > 5000 nM |
|  |  |  |  |  | COc1ccc2cnc(Nc3ccc(N4CCN(C(=O)CN)CC4)cc3)nc2c1C(C)C | 191 nM |
|  |  |  |  |  | COc1ccc2cnc(Nc3ccc(N4CCN(C(=O)CN)CC4)cc3)nc2c1C1CCCC1 | 95 nM |
|  |  |  |  |  | COc1ccc2cnc(Nc3ccc(N4CCNCC4)cc3)nc2c1C(C)C | 185 nM |
| 166 nM | 650 nM | 801 nM |  |  | COc1ccc2cnc(Nc3ccccc3)nc2c1C1CCCC1 | 202 nM |
|  |  |  |  |  | COc1ccc2cnc(Nc3ccc(N4CCOCC4)cc3)nc2c1C1CCCC1 | 384 nM |
|  |  |  |  |  | COc1ccc2cnc(Nc3ccc(N4CCC(N)C4)cc3)nc2c1C(C)C (stereo unspecified) | 296 nM |
| 3 nM | 635 nM | 1940 nM |  |  | Oc1ccc2cnc(Nc3ccc(N4CCOCC4)cc3)nc2c1C1CCCC1 | 180 nM |
|  |  |  |  |  | COc1ccc2cnc(Nc3ccc(N4CCNCC4)c(F)c3)nc2c1C1CCCC1 | 62 nM |

| Compound | IC50 [1] | IC50 [2] | IC50 [3] | logD [5] | IC50 (HCT-116) | IC50 [4] |
| --- | --- | --- | --- | --- | --- | --- |
| COc1ccc2cnc(Nc3ccc(N4CCCCC4)cc3)nc2c1C1CCCC1 |  | > 5000 nM | > 5000 nM |  |  | 384 nM |
| COc1ccc2cnc(Nc3ccc(N4CCCC4)cc3)nc2c1C1CCCC1 |  |  | > 5000 nM |  |  | > 5000 nM |
| COc1ccc2cnc(Nc3ccc(N4CCCC4)cc3)nc2c1C(C)C |  | > 5000 nM | > 5000 nM |  |  | 1600 nM |
| COc1ccc2cnc(Nc3ccc(N4CCC(N)C4)cc3)nc2c1C1CCCC1 (stereo unspecified) |  | 775 nM |  |  |  | 203 nM |
| COc1ccc2cnc(Nc3ccc(N4CCCCC4)cc3)nc2c1C(C)C |  |  | > 5000 nM |  |  | 410 nM |
